Legend:
[1] = in vitro study of arginine, CGP and HPC, enamel microhardness (FIG. 3); design: species or system bovine; settings: after 10 days of exposure
Source text: The in vitro study used bovine tooth enamel slabs which were polished and then subjected to an initial tooth softening step using lactic acid. An initial microhardness measurement was then made on each enamel specimen. The enamel specimens were subjected to four pH cycles per day, each cycle comprising a thirty-minute acid demineralization step followed by a twenty-minute lozenge remineralization step. Final microhardness measurements were taken on each specimen after 10 days of treatment and after 20 days of treatment. A fluoride dentifrice and a no-lozenge control sample were analyzed according to the same procedure for comparison purposes.
The latter two alternatives, chitosan and biofilm dispersing agents, were ruled out because they lacked approval for food use. Arginine was selected as the leading candidate for further evaluation. A new in vitro study was undertaken to evaluate arginine alone and in combination with CGP and HPC. CGP alone, CGP with HPC and fluoride were also investigated. The testing procedure was substantially the same as the in vitro study for calcium salts.
The height of each bar represents the change in the KHN as calculated by ΔKHN=KHN10-DAY−KHNINITIAL.

[2] = sugar alcohol assessment of salivary flow and time in mouth (FIG. 4); type: in vivo; settings: test subjects using a mint vs at rest with no mint; preliminary results
Source text: In addition to evaluating additives for their ability to provide tooth strengthening properties, the inventors also investigated a number of sugar alcohols, individually and in combination, for their ability to increase salivary flow and TIM. The investigation included dual layer formulations as well as compressed tablets. Greater salivary flow is desirable to create calcium delivery and increased TIM provides greater delivery time for active ingredients to have an effect. In FIG. 4, the blue bars represent the average salivary flow difference (in ml/min) between test subjects at rest with no mint versus test subjects using a mint. The green bars represent the average dissolution time in seconds/1000.

Molecule | change in enamel microhardness (ΔKHN) [1] | average salivary flow difference [2]
N=C(N)NCCC[C@H](N)C(=O)O [Arginine] | did not produce significant results | –
Cl.N=C(N)NCCC[C@H](N)C(=O)O [arginine HCl] | did not produce significant results | –
OC[C@@H](O)[C@@H](O)CO [erythritol] | – | stimulated salivary flow
calcium glycerophosphate [CGP] | increase in microhardness that was very similar to the sample for fluoride | –

Source: patent publication US20180325814A1, “CONFECTIONERY FOR ORAL CARE APPLICATIONS” (The Hershey Company, priority 2017, published 2018)
